# Experimental data as given in patent publication US20220365099A1, “DERIVATIZATION OF BETA-LACTAM ANTIBIOTICS FOR MASSSPEC MEASUREMENTS IN PATIENT SAMPLES” (Roche Diagnostics Operations, Inc., priority 2019, published 2022).
# Experiment: Stability in water at room temperature, LC-MS/MS peak areas over 16 h
# Type: physicochemical
# Details: 5 μg/ml in water, timepoints 0, 2, 4, 6, 8 and 16 h
# Procedure: The stability of native Piperacillin as well as its hydrolyzed forms was investigated (compounds 5, 9a and 9b, respectively. From the hydrolyzation pathway of Piperacillin (see schematic drawing in FIG. 1) it is obvious that this compound hydrolyzed both on the piperazin ring and the lactam moiety, only one of both compounds is monitored to account for the loss of native Piperacillin). To this end, these compounds were freshly weighed and dissolved in water at a concentration of 1 mg/mL by rolling for 15 minutes at room temperature. Subsequently, these compounds were diluted to 5 μg/ml and measured with a suitable LC-MS/MS method at timepoints 0, 2, 4, 6, 8 and 16 h. […] The peaks were integrated using MultiQuant software and the areas of these peaks depicted in the graphs in FIGS. 2A and 2B.
# The stability of double butylamide variants of Piperacillin (compound 7, see FIG. 4) was investigated at 2 MRMs using the identical protocol as in Examples 1.
smiles,measurement,value
CCN1CCN(C(=O)N[C@@H](C(=O)N[C@@H]2C(=O)N3[C@@H]2SC(C)(C)[C@@H]3C(=O)O)c2ccccc2)C(=O)C1=O [Piperacillin],obtained peak-areas over time,decreasing
